The values that follow come from patent US6815451B2, “1,2,3,4-Tetrahydroisoquinolines derivatives as urotensin II receptor antagonists” (Actelion Pharmaceuticals Ltd., priority 2001, dated 2004).

Assay [1] has as its target T1, urotensin II receptor on TE-671 rhabdomyosarcoma cells (Homo sapiens, UniProt Q9UKP6).
T1 construct: host or cells: TE-671 rhabdomyosarcoma cells
T1 sequence (Q9UKP6 1-389): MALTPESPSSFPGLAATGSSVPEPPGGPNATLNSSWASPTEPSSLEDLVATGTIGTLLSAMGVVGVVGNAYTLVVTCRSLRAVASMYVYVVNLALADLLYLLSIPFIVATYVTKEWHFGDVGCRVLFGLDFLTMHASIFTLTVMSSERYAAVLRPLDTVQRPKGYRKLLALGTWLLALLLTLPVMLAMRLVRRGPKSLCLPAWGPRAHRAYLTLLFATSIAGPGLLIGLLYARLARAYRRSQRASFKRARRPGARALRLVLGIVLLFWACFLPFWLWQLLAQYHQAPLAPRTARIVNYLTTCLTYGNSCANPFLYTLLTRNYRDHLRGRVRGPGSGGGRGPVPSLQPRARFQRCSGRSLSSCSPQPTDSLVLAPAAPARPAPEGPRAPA
In words: Inhibition of human [125I]-urotensin II binding to a rhabdomyosarcoma cell line (whole cell binding). The conditions noted are these: TE-671 whole cells, 20 pM human [125I]urotensin II, 4 h at 20° C. The protocol: 1) Inhibition of Human [125I]-urotensin II Binding to a Rhabdomyosarcoma Cell Line
Whole cell binding of human [^125I]-urotensin II is performed using human-derived TE-671 rhabdomyosarcoma cells (Deutsche Sammlung von Mikroorganismen und Zellkulturen, cell line #ACC-263), by methods adapted from a whole cell endothelin binding assay (Breu V et al., In vitro characterization of Ro-46-2005, a novel synthetic non-peptide antagonist of ETA and ETB receptors. FEBS Lett. 1993, 334, 210-214).
The assay is performed in 250 μL Dubecco's modified eagle medium, pH 7.4 (GIBCO BRL, CatNo 31885-023), including 25 mM HEPES (Fluka, CatNo 05473), 1.0% DMSO (Fluka, CatNo 41644) and 0.5% (w/v) BSA Fraction V (Fluka, CatNo 05473) in polypropylene microtiter plates (Nunc, CatNo 442587). 300,000 suspended cells are incubated with gentle shaking for 4 h at 20° C. with 20 pM human [^125I]Urotensin II (Anawa Trading SA, Wangen, Switzerland, 2130 Ci/mmol) and increasing concentrations of unlabeled antagonist. Minimum and maximum binding are derived from samples with and without 100 nM unlabelled U-II, respectively. After the 4 h incubation period, the cells are filtered onto GF/C filter plates (Packard, CatNo 6005174). The filter plates are dried, and then 50 μL scintillation cocktail (Packard, MicroScint 20, CatNo 6013621) is added to each well. The filter plates are counted in a microplate counter (Packard Bioscience, TopCount NXT).
All test compounds are dissolved and diluted in 100% DMSO. A […] dilution into assay buffer is performed prior to addition to the assay. […] Specific binding is the difference between maximum binding and minimum binding, as described above.

Another assay concerns isolated rat aortic arch. Conditions: for pD2′ (functional inhibitory potency): Wistar rat aortic arch rings, 20 min incubation with test compound before cumulative doses of human urotensin II. The protocol: 2) Inhibition of Human Urotensin II-Induced Contractions of Isolated Rat Aortic Arch Adult Wistar rats are anesthetized (CO2 inhalation) and exsanguinated. The aortic arch is excised, dissected and cut in 3 rings of 3 mm, ring #1 being the more proximal and ring #3 being the more distal. Each ring is suspended in a 10 mL isolated organ bath filled with Krebs-Henseleit solution (in mM; NaCl 115, KCl 4.7, MgSO4 1.2, KH2PO4 1.5, NaHCO3 25, CaCl2 2.5, glucose 10; pH 7.4) kept at 37° C. and gassed with 95% O2 and 5% CO2. The rings are connected to force transducers and isometric tension is recorded (EMKA Technologies SA, Paris, France). The rings are stretched to a resting tension of 3 g. […] The functional inhibitory potency of the test compound is assessed by calculating the pD2′ according to the formula: pD2′=Log (CR-1)-Log [B], where CR is the ratio of the maximal effect without/with antagonist and [B] the concentration of the antagonist.

One may read the IC50 as the concentration at which inhibition is half-maximal. Low readings indicate greater potency, high ones weaker potency. As to `COc1cc2c(cc1OC)C(CCc1cc(F)ccc1F)N(CCNC(=O)Nc1cc(C)nc3ccccc13)CC2` (stereo not shown) [Example 20, 1-(2-{1-[2-(2,5-Difluoro-phenyl)-ethyl]-6,7-dimethoxy-3,4-dihydro-1H-isoquinolin-2-yl}-ethyl)-3-(2-methyl-quinolin-4-yl)-urea], the concentration for half-maximal inhibition (IC50) in assay [1] came out at 67 nM.

As to `COc1ccc(CCC2c3cc(OC)c(OC)cc3CCN2CCNC(=O)Nc2cc(C)nc3ccccc23)cc1OC` (stereo not shown) [Example 22, 1-(2-{1-[2-(3,4-Dimethoxy-phenyl)-ethyl]-6,7-dimethoxy-3,4-dihydro-1H-isoquinolin-2-yl}-ethyl)-3-(2-methyl-quinolin-4-yl)-urea], the IC50 in assay [1] turned out to be 63 nM.

In turn, `COc1cc2c(cc1OC)C(CCc1ccccc1)N(CCNC(=O)Nc1cc(C)nc3ccccc13)CC2` (stereo not shown) [Example 29, 1-[2-(6,7-Dimethoxy-1-phenethyl-3,4-dihydro-1H-isoquinolin-2-yl)-ethyl]-3-(2-methyl-quinolin-4-yl)-urea] showed an IC50 in assay [1] of 125 nM. The “pD2′ (functional inhibitory potency)” value in the assay with isolated rat aortic arch worked out at 5.23.

In assay [1], `COc1cc2c(c(OC)c1)C(Cc1ccc(OC)c(OC)c1)N(CCNC(=O)Nc1cc(C)nc3ccccc13)CC2` (stereo not shown) [Example 58, 1-{2-[1-(3,4-Dimethoxy-benzyl)-6,8-dimethoxy-3,4-dihydro-1H-isoquinolin-2-yl]-ethyl}-3-(2-methyl-quinolin-4-yl)-urea] gave an IC50 of 550 nM.

Consider `COc1ccc(CC2c3c(OC)ccc(OC)c3CCN2CCNC(=O)Nc2ccnc3ccccc23)cc1OC` (stereo not shown) [Example 93, 1-{2-[1-(3,4-Dimethoxy-benzyl)-5,8-dimethoxy-3,4-dihydro-1H-isoquinolin-2-yl]-ethyl}-3-quinolin-4-yl-urea], for which, in the assay on isolated rat aortic arch, the “pD2′ (functional inhibitory potency)” value worked out at 5.45.

The term EC50 denotes the concentration needed to bring the measured effect to its halfway point. On to `CC(C)[C@H](NC(=O)[C@@H]1CSSC[C@H](NC(=O)[C@H](CC(=O)O)NC(=O)[C@@H]2CCCN2C(=O)[C@@H](NC(=O)[C@@H](N)CCC(=O)O)[C@@H](C)O)C(=O)N[C@@H](Cc2ccccc2)C(=O)N[C@@H](Cc2c[nH]c3ccccc23)C(=O)N[C@@H](CCCCN)C(=O)N[C@@H](Cc2ccc(O)cc2)C(=O)N1)C(=O)O` [human U-II, reference compound], for which the 50% effective concentration (EC50) in the assay with isolated rat aortic arch was 1.09 ± 0.1 nM.
